# Activity calls are given as the source filed them. The calls are words filed in the database; no cut-off is given here.
# Experiments:
# [1] = biological target: Histone deacetylase 1 (Homo sapiens, UniProt Q13547); assay: Inhibition of HDAC1 (unknown origin) using Boc-Lys(acetyl)-AMC as substrate preincubated for 1 hrs followed by substrate addition and measured after 2 hrs by spectrophotometer based fluorometric assay
# [2] = biological target: Histone deacetylase 3 (Homo sapiens, UniProt O15379); assay: Inhibition of HDAC3 (unknown origin) using Boc-Lys(acetyl)-AMC as substrate preincubated for 1 hrs followed by substrate addition and measured after 2 hrs by spectrophotometer based fluorometric assay
# Histone deacetylase 3, sequence (O15379 whole entry): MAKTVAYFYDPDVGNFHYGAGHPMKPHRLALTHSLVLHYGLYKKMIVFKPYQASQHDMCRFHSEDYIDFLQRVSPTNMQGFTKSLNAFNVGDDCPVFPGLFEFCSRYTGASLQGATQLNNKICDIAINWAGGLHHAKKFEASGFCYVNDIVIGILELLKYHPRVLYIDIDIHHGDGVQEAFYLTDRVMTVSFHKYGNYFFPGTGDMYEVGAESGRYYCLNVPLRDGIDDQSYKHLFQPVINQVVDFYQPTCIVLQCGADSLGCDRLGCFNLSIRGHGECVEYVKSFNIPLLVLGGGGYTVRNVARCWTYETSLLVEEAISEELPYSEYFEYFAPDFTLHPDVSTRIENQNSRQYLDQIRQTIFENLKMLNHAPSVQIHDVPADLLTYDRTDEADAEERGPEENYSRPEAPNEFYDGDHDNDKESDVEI
# [3] = biological target: Histone deacetylase 4 (Homo sapiens, UniProt P56524); assay: Inhibition of HDAC4 (unknown origin) using Boc-Lys(acetyl)-AMC as substrate preincubated for 1 hrs followed by substrate addition and measured after 2 hrs by spectrophotometer based fluorometric assay
# Histone deacetylase 4, sequence (P56524 whole entry): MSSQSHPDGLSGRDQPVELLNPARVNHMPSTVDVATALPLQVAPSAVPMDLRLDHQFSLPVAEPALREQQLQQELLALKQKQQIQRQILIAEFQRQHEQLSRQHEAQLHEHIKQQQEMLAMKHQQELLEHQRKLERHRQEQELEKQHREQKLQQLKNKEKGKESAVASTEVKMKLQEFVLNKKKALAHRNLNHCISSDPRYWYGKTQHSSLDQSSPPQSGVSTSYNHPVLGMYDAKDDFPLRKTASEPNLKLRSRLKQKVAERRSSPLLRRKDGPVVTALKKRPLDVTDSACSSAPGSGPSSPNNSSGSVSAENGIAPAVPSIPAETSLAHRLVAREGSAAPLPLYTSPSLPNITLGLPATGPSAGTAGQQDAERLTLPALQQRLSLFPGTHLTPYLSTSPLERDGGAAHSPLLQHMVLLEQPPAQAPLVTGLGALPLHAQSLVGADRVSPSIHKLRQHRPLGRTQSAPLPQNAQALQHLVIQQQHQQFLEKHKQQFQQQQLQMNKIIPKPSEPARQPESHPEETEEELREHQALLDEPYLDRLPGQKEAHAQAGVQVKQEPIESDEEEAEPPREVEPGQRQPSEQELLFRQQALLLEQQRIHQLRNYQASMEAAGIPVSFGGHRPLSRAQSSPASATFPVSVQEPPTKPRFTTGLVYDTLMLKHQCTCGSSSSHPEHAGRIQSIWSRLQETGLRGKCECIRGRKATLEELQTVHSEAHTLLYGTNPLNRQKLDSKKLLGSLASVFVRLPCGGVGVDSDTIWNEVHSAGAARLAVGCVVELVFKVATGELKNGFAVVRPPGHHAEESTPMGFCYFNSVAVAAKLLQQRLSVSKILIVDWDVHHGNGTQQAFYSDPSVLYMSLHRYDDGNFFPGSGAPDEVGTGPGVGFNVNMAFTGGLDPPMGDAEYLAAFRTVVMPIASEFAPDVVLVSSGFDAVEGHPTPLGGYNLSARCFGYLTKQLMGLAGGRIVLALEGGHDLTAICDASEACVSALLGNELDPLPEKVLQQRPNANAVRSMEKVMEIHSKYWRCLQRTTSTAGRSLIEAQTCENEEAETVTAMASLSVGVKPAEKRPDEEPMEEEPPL
# [4] = biological target: Histone deacetylase 9 (Homo sapiens, UniProt Q9UKV0); assay: Inhibition of HDAC9 (unknown origin) using Boc-Lys(acetyl)-AMC as substrate preincubated for 1 hrs followed by substrate addition and measured after 2 hrs by spectrophotometer based fluorometric assay
# [5] = biological target: Phosphatidylinositol 4,5-bisphosphate 3-kinase catalytic subunit gamma isoform (Homo sapiens, UniProt P48736); assay: Inhibition of PI3Kgamma (unknown origin) using PIP2 as substrate incubated for 1 hrs in presence of ATP by ADP-Glo kinase assay
# Phosphatidylinositol 4,5-bisphosphate 3-kinase catalytic subunit gamma isoform, sequence (P48736 whole entry, canonical isoform): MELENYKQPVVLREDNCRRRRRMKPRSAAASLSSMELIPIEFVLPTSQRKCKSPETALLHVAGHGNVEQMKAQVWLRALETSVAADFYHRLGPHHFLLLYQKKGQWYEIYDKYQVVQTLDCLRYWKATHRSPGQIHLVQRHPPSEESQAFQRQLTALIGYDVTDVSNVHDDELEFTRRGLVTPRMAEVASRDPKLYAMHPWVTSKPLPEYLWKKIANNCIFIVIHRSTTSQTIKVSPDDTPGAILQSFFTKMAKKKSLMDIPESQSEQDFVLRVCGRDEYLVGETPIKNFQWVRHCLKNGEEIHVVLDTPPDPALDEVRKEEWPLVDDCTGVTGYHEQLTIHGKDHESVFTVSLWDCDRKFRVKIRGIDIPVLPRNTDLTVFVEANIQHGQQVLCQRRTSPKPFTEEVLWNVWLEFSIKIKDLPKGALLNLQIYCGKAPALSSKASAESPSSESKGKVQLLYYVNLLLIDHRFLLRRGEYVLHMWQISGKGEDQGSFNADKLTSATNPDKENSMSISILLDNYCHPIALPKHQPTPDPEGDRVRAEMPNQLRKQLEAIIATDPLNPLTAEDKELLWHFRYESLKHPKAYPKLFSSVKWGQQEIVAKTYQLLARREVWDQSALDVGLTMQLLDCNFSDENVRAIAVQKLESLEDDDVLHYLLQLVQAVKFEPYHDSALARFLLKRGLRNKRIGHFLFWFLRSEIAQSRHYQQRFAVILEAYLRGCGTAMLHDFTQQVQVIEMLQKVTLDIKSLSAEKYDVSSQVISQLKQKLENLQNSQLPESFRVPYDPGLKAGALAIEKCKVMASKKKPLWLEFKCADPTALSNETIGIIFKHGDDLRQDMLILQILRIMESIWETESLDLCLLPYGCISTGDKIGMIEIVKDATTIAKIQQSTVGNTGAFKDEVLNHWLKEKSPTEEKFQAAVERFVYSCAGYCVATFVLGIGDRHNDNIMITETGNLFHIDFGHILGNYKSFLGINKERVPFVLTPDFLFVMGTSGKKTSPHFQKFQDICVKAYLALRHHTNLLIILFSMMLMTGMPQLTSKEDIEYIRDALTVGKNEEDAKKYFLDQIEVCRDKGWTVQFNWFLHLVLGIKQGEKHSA
# [6] = system: MM1.S; assay: Antiproliferative activity against human MM1.S cells incubated for 48 hrs by resazurin dye based fluorescence micro plate reader analysis; format: functional, cell-based
# [7] = system: JeKo-1; assay: Antiproliferative activity against human JeKo-1 cells incubated for 48 hrs by resazurin dye based fluorescence micro plate reader analysis; format: functional, cell-based; details: JeKo-1, 48 h
# [8] = system: HL-60; assay: Antiproliferative activity against human HL-60 cells incubated for 48 hrs by resazurin dye based fluorescence micro plate reader analysis; format: functional, cell-based; details: HL-60, 48 h
# [9] = system: MDA-MB-231; assay: Antiproliferative activity against human MDA-MB-231 cells incubated for 48 hrs by resazurin dye based fluorescence micro plate reader analysis; format: functional, cell-based; details: MDA-MB-231, 48 h
# [10] = biological target: CYP2B6 (Homo sapiens, UniProt P20813); assay: Inhibition of CYP2B6 in human liver microsomes using bupropion as substrate at 10 uM in presence of NADPH regenerating system by LC-MS/MS analysis relative to control; format: ADME, Microsome; details: probe bupropion
# CYP2B6, sequence (P20813 whole entry): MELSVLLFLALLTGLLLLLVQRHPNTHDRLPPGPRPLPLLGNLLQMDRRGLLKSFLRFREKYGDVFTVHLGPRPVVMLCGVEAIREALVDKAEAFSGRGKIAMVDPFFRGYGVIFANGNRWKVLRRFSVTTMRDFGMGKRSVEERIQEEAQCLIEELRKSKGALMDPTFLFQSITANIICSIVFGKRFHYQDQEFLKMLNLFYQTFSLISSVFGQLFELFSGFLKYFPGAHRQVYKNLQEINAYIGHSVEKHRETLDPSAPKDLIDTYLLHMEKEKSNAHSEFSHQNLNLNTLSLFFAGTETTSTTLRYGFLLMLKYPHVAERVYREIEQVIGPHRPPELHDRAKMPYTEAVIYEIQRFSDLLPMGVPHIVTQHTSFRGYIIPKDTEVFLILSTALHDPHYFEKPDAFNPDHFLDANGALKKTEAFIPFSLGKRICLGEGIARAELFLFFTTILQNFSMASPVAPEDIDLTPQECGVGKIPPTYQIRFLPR
# [11] = biological target: CYP2D6 (Homo sapiens, UniProt P10635); assay: Inhibition of CYP2D6 in human liver microsomes using bufuralol as substrate at 10 uM in presence of NADPH regenerating system by LC-MS/MS analysis relative to control; format: ADME, Microsome; details: probe bufuralol
# CYP2D6, sequence (P10635 whole entry): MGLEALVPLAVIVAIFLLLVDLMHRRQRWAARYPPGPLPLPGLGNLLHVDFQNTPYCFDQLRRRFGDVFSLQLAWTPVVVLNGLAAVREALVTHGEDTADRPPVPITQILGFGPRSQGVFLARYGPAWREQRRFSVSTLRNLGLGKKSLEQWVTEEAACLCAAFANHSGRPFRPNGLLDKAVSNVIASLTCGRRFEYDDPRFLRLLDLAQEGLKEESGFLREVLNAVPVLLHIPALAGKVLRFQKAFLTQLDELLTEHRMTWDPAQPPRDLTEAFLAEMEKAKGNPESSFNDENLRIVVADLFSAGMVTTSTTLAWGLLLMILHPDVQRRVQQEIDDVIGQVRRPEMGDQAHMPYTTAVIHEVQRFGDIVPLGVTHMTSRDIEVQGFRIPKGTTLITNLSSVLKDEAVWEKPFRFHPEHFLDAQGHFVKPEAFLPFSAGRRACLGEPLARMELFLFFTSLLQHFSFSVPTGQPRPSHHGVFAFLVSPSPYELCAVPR
# [12] = biological target: CYP3A4 (Homo sapiens, UniProt P08684); assay: Inhibition of CYP3A4 in human liver microsomes using bufuralol as substrate at 10 uM in presence of NADPH regenerating system by LC-MS/MS analysis relative to control; format: ADME, Microsome; details: probe bufuralol
# [13] = biological target: hERG (Homo sapiens, UniProt Q12809); assay: Inhibition of hERG transfected in CHO cells at 30 uM by manual patch-clamp assay relative to control; format: toxicity, cell-based; details: CHO cells transfected with hERG
# hERG, sequence (Q12809 whole entry): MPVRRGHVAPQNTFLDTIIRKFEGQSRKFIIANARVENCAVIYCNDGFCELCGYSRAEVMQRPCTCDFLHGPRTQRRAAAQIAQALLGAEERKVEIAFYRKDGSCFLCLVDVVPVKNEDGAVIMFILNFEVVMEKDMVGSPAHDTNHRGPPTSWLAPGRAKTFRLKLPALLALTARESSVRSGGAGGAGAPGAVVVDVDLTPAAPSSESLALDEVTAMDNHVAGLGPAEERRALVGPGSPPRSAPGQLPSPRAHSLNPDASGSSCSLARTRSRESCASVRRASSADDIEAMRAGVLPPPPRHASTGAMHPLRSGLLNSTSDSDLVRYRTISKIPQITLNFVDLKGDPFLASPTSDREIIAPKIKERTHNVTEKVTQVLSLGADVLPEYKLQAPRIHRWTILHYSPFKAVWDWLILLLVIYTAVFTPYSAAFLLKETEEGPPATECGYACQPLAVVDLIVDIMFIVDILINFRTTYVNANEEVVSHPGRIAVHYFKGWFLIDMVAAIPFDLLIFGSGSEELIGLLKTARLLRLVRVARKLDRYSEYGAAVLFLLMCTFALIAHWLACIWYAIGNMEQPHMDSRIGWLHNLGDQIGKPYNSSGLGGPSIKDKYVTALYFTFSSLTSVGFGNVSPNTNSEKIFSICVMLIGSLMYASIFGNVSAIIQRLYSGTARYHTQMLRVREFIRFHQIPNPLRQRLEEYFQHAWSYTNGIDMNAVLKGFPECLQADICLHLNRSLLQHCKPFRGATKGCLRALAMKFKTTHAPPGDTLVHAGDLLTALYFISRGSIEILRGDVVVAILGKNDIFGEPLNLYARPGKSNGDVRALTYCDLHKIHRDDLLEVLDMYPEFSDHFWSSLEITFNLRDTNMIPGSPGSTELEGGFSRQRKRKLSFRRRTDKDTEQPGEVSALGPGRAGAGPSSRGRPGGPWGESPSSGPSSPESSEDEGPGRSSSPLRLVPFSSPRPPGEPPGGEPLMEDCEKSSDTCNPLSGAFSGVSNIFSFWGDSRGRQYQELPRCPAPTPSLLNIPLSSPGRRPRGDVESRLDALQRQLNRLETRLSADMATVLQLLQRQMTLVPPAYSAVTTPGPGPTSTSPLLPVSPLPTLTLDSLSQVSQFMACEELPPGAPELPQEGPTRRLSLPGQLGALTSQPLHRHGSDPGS
# [14] = Stability in human liver microsomes assessed as compound remaining at […] preincubated for 5 mins followed by NADPH addition and measured immediately by LC-MS/MS analysis; format: ADME, Microsome; details: read-out: Stability
# [15] = Stability in human liver microsomes assessed as compound remaining at […] preincubated for 5 mins followed by NADPH addition and measured after 15 mins by LC-MS/MS analysis; format: ADME, Microsome; details: time 20 min, read-out: Stability
# [16] = Stability in rat liver microsomes assessed as compound remaining at […] preincubated for 5 mins followed by NADPH addition and measured after 30 mins by LC-MS/MS analysis; format: ADME, Microsome; details: time 35 min, read-out: Stability
# [17] = Stability in rat liver microsomes assessed as compound remaining at 0.5 mM preincubated for 5 mins followed by NADPH addition and measured after 45 mins by LC-MS/MS analysis; format: ADME, Microsome; details: time 50 min, read-out: Stability
# [18] = Stability in mouse liver microsomes assessed as compound remaining at 0.5 mM preincubated for 5 mins followed by NADPH addition and measured immediately by LC-MS/MS analysis; format: ADME, Microsome; details: read-out: Stability
# [19] = C0 in ICR mouse at 1 mg/kg, iv measured after 24 hrs by LC-MS/MS analysis; format: ADME, organism-based; details: in vivo
# [20] = Half-life in ICR mouse at 1 mg/kg, iv measured after 24 hrs by LC-MS/MS analysis; format: ADME, organism-based; details: in vivo
# [21] = AUC (0 to t) in ICR mouse at 1 mg/kg, iv measured after 24 hrs by LC-MS/MS analysis; format: ADME, organism-based; details: in vivo
# [22] = AUC (0 to infinity) in ICR mouse at 1 mg/kg, iv measured after 24 hrs by LC-MS/MS analysis; format: ADME, organism-based; details: in vivo
# [23] = Clearance in ICR mouse at 1 mg/kg, iv measured after 24 hrs by LC-MS/MS analysis; format: ADME, organism-based; details: in vivo
# [24] = system: JeKo-1; assay: Induction of apoptosis in human JeKo-1 cells assessed as viable cells at 0.25 uM incubated for 48 hrs by Annexin-V/FITC and PI staining based flow cytometric analysis (reference value: 94.1%); format: functional; details: read-out: Activity
# [25] = system: JeKo-1; assay: Induction of apoptosis in human JeKo-1 cells assessed as necrotic cells at 0.25 uM incubated for 48 hrs by Annexin-V/FITC and PI staining based flow cytometric analysis (reference value: 1.05%); format: functional
# [26] = system: JeKo-1; assay: Induction of apoptosis in human JeKo-1 cells assessed as viable cells at 0.5 uM incubated for 48 hrs by Annexin-V/FITC and PI staining based flow cytometric analysis (reference value: 94.1%); format: functional; details: read-out: Activity
# [27] = system: JeKo-1; assay: Induction of apoptosis in human JeKo-1 cells assessed as early apoptotic cells at 0.5 uM incubated for 48 hrs by Annexin-V/FITC and PI staining based flow cytometric analysis (reference value: […]); format: functional
# [28] = system: JeKo-1; assay: Induction of apoptosis in human JeKo-1 cells assessed as necrotic cells at 0.5 uM incubated for 48 hrs by Annexin-V/FITC and PI staining based flow cytometric analysis (reference value: 1.05%); format: functional
# [29] = system: JeKo-1; assay: Induction of apoptosis in human JeKo-1 cells assessed as viable cells at 1 uM incubated for 48 hrs by Annexin-V/FITC and PI staining based flow cytometric analysis (reference value: 94.1%); format: functional; details: read-out: Activity
# [30] = system: JeKo-1; assay: Induction of apoptosis in human JeKo-1 cells assessed as early apoptotic cells at 1 uM incubated for 48 hrs by Annexin-V/FITC and PI staining based flow cytometric analysis (reference value: […]); format: functional
# [31] = system: JeKo-1; assay: Induction of apoptosis in human JeKo-1 cells assessed as necrotic cells at 1 uM incubated for 48 hrs by Annexin-V/FITC and PI staining based flow cytometric analysis (reference value: 1.05%); format: functional
# [32] = Inhibition of PI3K/AKT/mTOR signaling in human JeKo-1 cells assessed as decrease in AKT phosphorylation at S473 residue at 0.25 uM incubated for 24 hrs by Western blot analysis; format: cell-based
# [33] = system: JeKo-1; assay: Effect on total AKT protein level in human JeKo-1 cells at 0.25 uM incubated for 24 hrs by Western blot analysis; format: functional, cell-based
# [34] = system: JeKo-1; assay: Inhibition of class 1 HDAC in human JeKo-1 cells assessed as increase in histone H3 acetylation incubated for 24 hrs by Western blot analysis; format: cell-based; details: dose 0.25-1 µM
smiles,measurement,setting,value
COc1nc(-c2ccc(NC(=O)Nc3ccc(C(=O)NCCCCCC(=O)Nc4ccccc4N)cc3)cc2)nc(N2CCOCC2)n1,IC50,[1],306 nM
same,IC50,[2],24.5 nM
same,IC50,[3],> 10000 nM
same,IC50,[4],> 10000 nM
same,IC50,[5],95.4 nM
same,IC50,[6],2900 nM
same,IC50,[7],500 nM
same,IC50,[8],900 nM
same,IC50,[9],1500 nM
same,inhibition at 10 µM,[10],35.6%
same,inhibition at 10 µM,[11],48.8%
same,inhibition at 10 µM,[12],32.5%
same,inhibition at 30 µM,[13],15.2%
same,remaining at 0 min,[14],100%
same,remaining at 0.25 h,[15],62.6%
same,remaining at 0.5 h,[16],46.9%
same,remaining at 0.75 h,[17],40.2%
same,remaining at 0 min,[18],100%
same,C0 at 24 h,[19],13700 ng/mL
same,half-life,[20],10 h
same,AUC(0-t) at 24 h,[21],2700 ng·h/mL
same,AUC(0-inf),[22],2770 ng·h/mL
same,clearance,[23],6.02 mL/min/kg
same,viability at 0.25 µM,[24],78.5%
same,Activity,[25],0.85%
same,viability at 0.5 µM,[26],48.8%
same,Activity,[27],17.8%
same,Activity,[28],0.49%
same,viability at 1 µM,[29],3.29%
same,Activity,[30],26.1%
same,Activity,[31],0.17%
same,inhibition,[32],Active
same,Activity,[33],inactive
same,inhibition,[34],Dose-Dependent Effect

# Source: ChEMBL document CHEMBL5634161, “Discovery of benzamide-based PI3K/HDAC dual inhibitors with marked pro-apoptosis activity in lymphoma cells” (Eur J Med Chem, 2023)
